Assay results reported in PubChem BioAssay (NCI).
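How tested: cells in 96-well plates exposed to compound for 48 hours at five concentrations. GI50 = concentration required for 50% inhibition of growth. Definition used: TGI = concentration required for complete inhibition of growth.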

Tests used:
Assay in all cases: DTP human tumour cell line panel, 48 h
[1] = tested on: DMS 273 small cell lung
[2] = tested on: OVCAR-3 ovarian
[3] = tested on: SF-268 CNS
[4] = tested on: XF 498 CNS
[5] = tested on: HCT-15 colon
[6] = tested on: UO-31 renal
[7] = tested on: NCI-H522 lung
[8] = tested on: OVCAR-5 ovarian
[9] = tested on: SNB-78 CNS
[10] = tested on: K-562 leukemia
[11] = tested on: A549 NSCLC
[12] = tested on: HCC-2998 colon
[13] = tested on: SNB-19 CNS
[14] = tested on: SK-MEL-5 melanoma
[15] = tested on: SN12C renal
[16] = tested on: HL-60(TB) leukemia
[17] = tested on: M14 melanoma
[18] = tested on: A498 renal
[19] = tested on: EKVX NSCLC
[20] = tested on: MOLT-4 leukemia
[21] = tested on: U251 CNS
[22] = tested on: SF-295 CNS
[23] = tested on: UACC-62 melanoma
[24] = tested on: M19-MEL melanoma
[25] = tested on: HOP-92 NSCLC
[26] = tested on: CAKI-1 renal
[27] = tested on: SW-620 colon
[28] = tested on: ACHN renal
[29] = tested on: IGROV1 ovarian
[30] = tested on: TK-10 renal
[31] = tested on: SK-MEL-28 melanoma
[32] = tested on: RPMI-8226 leukemia
[33] = tested on: DMS 114 small cell lung
[34] = tested on: KM20L2 colon
[35] = tested on: UACC-257 melanoma
[36] = tested on: HT29 colon
[37] = tested on: NCI-H23 lung
[38] = tested on: KM12 colon
[39] = tested on: LOX IMVI melanoma
[40] = tested on: SR leukemia
[41] = tested on: OVCAR-4 ovarian
[42] = tested on: HOP-62 NSCLC
[43] = tested on: MALME-3M melanoma
[44] = tested on: CCRF-CEM leukemia
[45] = tested on: OVCAR-8 ovarian
[46] = tested on: HCT-116 colon
[47] = tested on: 786-0 renal
[48] = tested on: SF-539 CNS
[49] = tested on: LXFL 529 NSCLC
[50] = tested on: SK-OV-3 ovarian
[51] = tested on: SK-MEL-2 melanoma
[52] = tested on: COLO 205 colon
[53] = tested on: NCI-H226 lung
[54] = tested on: RXF 393 renal
[55] = tested on: HOP-18 NSCLC
[56] = tested on: SNB-75 CNS
[57] = tested on: NCI-H460 lung
[58] = tested on: DLD-1 colon

## N#C/C(=C\c1ccccc1F)C(=O)c1ccccc1
[1]
  TGI: > 100 µM
[2]
  TGI: > 100 µM
[3]
  TGI: > 100 µM
[4]
  TGI: > 100 µM
[5]
  TGI: > 100 µM
[6]
  TGI: > 100 µM
[7]
  TGI: > 100 µM
[8]
  TGI: > 100 µM
[9]
  TGI: > 100 µM
[10]
  TGI: > 100 µM
[11]
  TGI: > 100 µM
[12]
  TGI: > 100 µM
[13]
  TGI: > 100 µM
[14]
  TGI: > 100 µM
[15]
  TGI: > 100 µM
[16]
  TGI: > 100 µM
[17]
  TGI: > 100 µM
[18]
  TGI: > 100 µM
[19]
  TGI: > 100 µM
[20]
  TGI: > 100 µM
[21]
  TGI: > 100 µM
[22]
  TGI: > 100 µM
[23]
  TGI: > 100 µM
[24]
  TGI: > 100 µM
[25]
  TGI: > 100 µM
[26]
  TGI: > 100 µM
[27]
  TGI: > 100 µM
[28]
  TGI: > 100 µM
[29]
  TGI: > 100 µM
[30]
  TGI: > 100 µM
[31]
  TGI: > 100 µM
[32]
  TGI: > 100 µM
[33]
  TGI: > 100 µM
[34]
  TGI: > 100 µM
[35]
  TGI: > 100 µM
[36]
  TGI: > 100 µM
[37]
  TGI: > 100 µM
[38]
  TGI: > 100 µM
[39]
  TGI: > 100 µM
[40]
  TGI: > 100 µM
[41]
  TGI: > 100 µM
[42]
  TGI: > 100 µM
[43]
  TGI: > 100 µM
[44]
  TGI: > 100 µM
[45]
  TGI: > 100 µM
[46]
  TGI: > 100 µM
[47]
  TGI: > 100 µM
[48]
  TGI: > 100 µM
[49]
  TGI: > 100 µM
[50]
  TGI: > 100 µM
[51]
  TGI: > 100 µM
[52]
  TGI: > 100 µM

## CC(Oc1ccc2c(=O)cc(-c3ccccc3)oc2c1)C(=O)O (stereo not given)
[2]
  TGI: > 100 µM
[3]
  TGI: > 100 µM
[4]
  TGI: > 100 µM
[6]
  TGI: > 100 µM
[7]
  TGI: > 100 µM
[9]
  TGI: > 100 µM
[10]
  TGI: > 100 µM
[11]
  TGI: > 100 µM
[12]
  TGI: > 100 µM
[13]
  TGI: > 100 µM
[14]
  TGI: > 100 µM
[15]
  TGI: > 100 µM
[16]
  TGI: > 100 µM
[17]
  TGI: > 100 µM
[18]
  TGI: > 100 µM
[19]
  TGI: > 100 µM
[20]
  TGI: > 100 µM
[21]
  TGI: > 100 µM
[53]
  TGI: > 100 µM
[22]
  TGI: > 100 µM
[23]
  TGI: > 100 µM
[24]
  TGI: > 100 µM
[25]
  TGI: > 100 µM
[26]
  TGI: > 100 µM
[27]
  TGI: > 100 µM
[28]
  TGI: > 100 µM
[29]
  TGI: > 100 µM
[30]
  TGI: > 100 µM
[54]
  TGI: > 100 µM
[31]
  TGI: > 100 µM
[33]
  TGI: > 100 µM
[34]
  TGI: > 100 µM
[55]
  TGI: > 100 µM
[35]
  TGI: > 100 µM
[36]
  TGI: > 100 µM
[37]
  TGI: > 100 µM
[38]
  TGI: > 100 µM
[39]
  TGI: > 100 µM
[40]
  TGI: > 100 µM
[56]
  TGI: > 100 µM
[41]
  TGI: > 100 µM
[42]
  TGI: > 100 µM
[43]
  TGI: > 100 µM
[44]
  TGI: > 100 µM
[45]
  TGI: > 100 µM
[46]
  TGI: > 100 µM
[47]
  TGI: > 100 µM
[57]
  TGI: > 100 µM
[48]
  TGI: > 100 µM
[49]
  TGI: > 100 µM
[58]
  TGI: > 100 µM
[50]
  TGI: > 100 µM
[52]
  TGI: > 100 µM

## O=c1oc2c(O)c(O)cc3c(=O)oc4c(O)c(O)cc1c4c23
[1]
  GI50: > 100 µM
  TGI: > 100 µM
[2]
  TGI: 82.2 µM
[3]
  TGI: > 100 µM
[4]
  TGI: > 100 µM
[5]
  TGI: > 100 µM
[6]
  TGI: > 100 µM
[7]
  TGI: 43.1 µM
[8]
  GI50: > 100 µM
  TGI: > 100 µM
[9]
  GI50: > 100 µM
  TGI: > 100 µM
[10]
  GI50: > 100 µM
  TGI: > 100 µM
[11]
  TGI: > 100 µM
[12]
  GI50: > 100 µM
  TGI: > 100 µM
[13]
  TGI: 57.3 µM
[14]
  GI50: > 100 µM
  TGI: > 100 µM
[15]
  TGI: > 100 µM
[16]
  GI50: > 100 µM
  TGI: > 100 µM
[17]
  TGI: > 100 µM
[18]
  TGI: > 100 µM
[19]
  TGI: > 100 µM
[20]
  GI50: > 100 µM
  TGI: > 100 µM
[21]
  TGI: 79 µM
[53]
  TGI: 57.4 µM
[22]
  GI50: > 100 µM
  TGI: > 100 µM
[23]
  TGI: > 100 µM
[24]
  GI50: > 100 µM
  TGI: > 100 µM
[25]
  TGI: 99 µM
[26]
  TGI: 29.5 µM
[27]
  GI50: > 100 µM
  TGI: > 100 µM
[28]
  TGI: > 100 µM
[29]
  TGI: > 100 µM
[30]
  TGI: > 100 µM
[54]
  GI50: > 100 µM
  TGI: > 100 µM
[31]
  GI50: > 100 µM
  TGI: > 100 µM
[32]
  GI50: > 100 µM
  TGI: > 100 µM
[33]
  TGI: > 100 µM
[34]
  TGI: > 100 µM
[35]
  GI50: > 100 µM
  TGI: > 100 µM
[36]
  GI50: > 100 µM
  TGI: > 100 µM
[37]
  TGI: > 100 µM
[38]
  GI50: > 100 µM
  TGI: > 100 µM
[39]
  TGI: > 100 µM
[40]
  TGI: > 100 µM
[56]
  TGI: 90.3 µM
[41]
  TGI: > 100 µM
[44]
  GI50: > 100 µM
  TGI: > 100 µM
[45]
  TGI: 88.7 µM
[46]
  TGI: > 100 µM
[47]
  TGI: 71.6 µM
[57]
  TGI: > 100 µM
[49]
  TGI: > 100 µM
[58]
  GI50: > 100 µM
  TGI: > 100 µM
[50]
  TGI: > 100 µM
[51]
  TGI: > 100 µM
[52]
  GI50: > 100 µM
  TGI: > 100 µM

## CC(O)(c1ccc(OCCC[N+](C)(C)C)cc1)C(C)(O)c1ccc(OCCC[N+](C)(C)C)cc1 (stereo not given)
[1]
  TGI: > 100 µM
[2]
  TGI: > 100 µM
[3]
  TGI: > 100 µM
[5]
  TGI: > 100 µM
[6]
  TGI: > 100 µM
[7]
  TGI: > 100 µM
[8]
  TGI: > 100 µM
[9]
  TGI: > 100 µM
[10]
  TGI: > 100 µM
[11]
  TGI: > 100 µM
[12]
  TGI: > 100 µM
[13]
  TGI: > 100 µM
[15]
  TGI: > 100 µM
[16]
  TGI: > 100 µM
[17]
  TGI: > 100 µM
[18]
  TGI: > 100 µM
[19]
  TGI: > 100 µM
[21]
  TGI: > 100 µM
[53]
  TGI: > 100 µM
[22]
  TGI: > 100 µM
[23]
  TGI: > 100 µM
[25]
  TGI: > 100 µM
[26]
  TGI: > 100 µM
[27]
  TGI: > 100 µM
[28]
  TGI: > 100 µM
[29]
  TGI: > 100 µM
[54]
  TGI: > 100 µM
[31]
  TGI: > 100 µM
[33]
  TGI: > 100 µM
[34]
  TGI: > 100 µM
[55]
  TGI: > 100 µM
[35]
  TGI: > 100 µM
[36]
  TGI: > 100 µM
[37]
  TGI: > 100 µM
[38]
  TGI: > 100 µM
[39]
  TGI: > 100 µM
[56]
  TGI: > 100 µM
[41]
  TGI: > 100 µM
[42]
  TGI: > 100 µM
[43]
  TGI: > 100 µM
[44]
  TGI: > 100 µM
[45]
  TGI: > 100 µM
[46]
  TGI: > 100 µM
[47]
  TGI: > 100 µM
[57]
  TGI: > 100 µM
[48]
  TGI: > 100 µM
[49]
  TGI: > 100 µM
[58]
  TGI: > 100 µM
[50]
  TGI: > 100 µM
[51]
  TGI: > 100 µM
[52]
  TGI: > 100 µM
